In ChEMBL document CHEMBL3044931, “Synthesis and Antimuscarinic Activity of Derivatives of 2-Substituted-1,3-Dioxolanes” (Med Chem Res, 2005):

Legend:
[1] = organism: Oryctolagus cuniculus; test: Binding affinity to Oryctolagus cuniculus (rabbit) vas deferens M1 receptor after 1 hr
[2] = target: Muscarinic acetylcholine receptor M3 (Cavia porcellus) (UniProt Q8VH26); test: Binding affinity to Cavia porcellus (guinea pig) ileum M3 receptor after 30 min; format: tissue-based
[3] = target: T1, Muscarinic receptor 2 (Cavia porcellus) (UniProt Q8VH27); test: Binding affinity to Cavia porcellus (guinea pig) left atria M2 receptor after 2 hr
T1 sequence (whole entry): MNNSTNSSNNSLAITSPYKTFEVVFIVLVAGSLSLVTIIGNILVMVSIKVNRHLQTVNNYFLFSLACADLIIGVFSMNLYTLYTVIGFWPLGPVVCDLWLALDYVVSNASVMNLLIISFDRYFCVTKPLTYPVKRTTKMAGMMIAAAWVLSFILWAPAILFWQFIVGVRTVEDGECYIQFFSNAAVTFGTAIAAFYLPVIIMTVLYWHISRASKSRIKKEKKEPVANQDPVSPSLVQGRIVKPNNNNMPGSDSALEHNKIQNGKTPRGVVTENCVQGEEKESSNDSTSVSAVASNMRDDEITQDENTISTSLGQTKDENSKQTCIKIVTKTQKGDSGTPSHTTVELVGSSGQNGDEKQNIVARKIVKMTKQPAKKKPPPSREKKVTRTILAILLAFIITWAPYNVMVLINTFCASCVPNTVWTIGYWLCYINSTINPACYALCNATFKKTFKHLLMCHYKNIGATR

[4] = Selectivity ratio of pKb for rabbit vas deferens M1 receptor to pKb for guinea pig left atria M2 receptor
[5] = Selectivity ratio of pKb for rabbit vas deferens M1 receptor to pKb for guinea pig ileum M3 receptor; format: tissue-based
[6] = organism: Cavia porcellus; test: Selectivity ratio of pKb for Cavia porcellus (guinea pig) ileum M3 receptor to pKb for Cavia porcellus (guinea pig) left atria M2 receptor; format: tissue-based; conditions: Atrium/Ileum
[7] = Antagonist activity at Oryctolagus cuniculus (rabbit) vas deferens M1 receptor after 1 hr; conditions: read-out: pA2 (converted)

Sequence of Muscarinic acetylcholine receptor M3 (Cavia porcellus) (Q8VH26 1-587): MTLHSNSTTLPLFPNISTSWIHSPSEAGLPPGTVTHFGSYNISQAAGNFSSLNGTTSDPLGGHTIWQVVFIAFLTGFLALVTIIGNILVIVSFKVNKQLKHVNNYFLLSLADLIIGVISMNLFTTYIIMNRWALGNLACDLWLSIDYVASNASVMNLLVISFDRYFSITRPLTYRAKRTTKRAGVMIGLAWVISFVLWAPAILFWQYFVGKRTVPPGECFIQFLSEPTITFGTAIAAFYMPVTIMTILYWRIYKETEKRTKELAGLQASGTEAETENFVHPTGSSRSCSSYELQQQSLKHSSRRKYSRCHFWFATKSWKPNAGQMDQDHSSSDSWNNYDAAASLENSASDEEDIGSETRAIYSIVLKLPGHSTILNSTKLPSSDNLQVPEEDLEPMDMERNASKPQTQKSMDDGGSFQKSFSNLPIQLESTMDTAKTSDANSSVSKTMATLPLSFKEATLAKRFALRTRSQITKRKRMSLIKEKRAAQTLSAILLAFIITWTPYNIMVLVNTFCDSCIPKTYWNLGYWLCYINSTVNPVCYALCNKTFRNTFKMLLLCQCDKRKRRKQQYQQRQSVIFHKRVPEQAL

| SMILES | pKb [1] | pKb [2] | pKb [3] | Ratio pKb [4] | Ratio pKb [5] | Ratio pKb [6] | Kb [7] |
| --- | --- | --- | --- | --- | --- | --- | --- |
| CN(C)[C@H]1CO[C@H](C(c2ccccc2)c2ccccc2)OC1 | – | – | – | – | – | – | 0.389 µM |
| CN(C)C[C@@H]1CO[C@@H](C(c2ccccc2)c2ccccc2)O1 | 6.9 | 6.67 | 6.56 | 2 | 2 | 1 | – |
| CN(C)C[C@@H]1CO[C@H](C(c2ccccc2)c2ccccc2)O1 (relative stereo) | 7.31 | 6.07 | 6.62 | 5 | 17 | 0.3 | – |
| CN(C)[C@H]1CO[C@@H](C(c2ccccc2)c2ccccc2)OC1 | – | – | – | – | – | – | 0.00617 µM |

Now from value to compound, other results behind:

| pKb [1] | pKb [2] | pKb [3] | Ratio pKb [4] | SMILES | Ratio pKb [5] | Ratio pKb [6] | Kb [7] |
| --- | --- | --- | --- | --- | --- | --- | --- |
| 6.35 | 6.44 | 6.48 | 0.7 | C[C@@H]1OC(c2ccccc2)(c2ccccc2)O[C@@H]1CN(C)C (relative stereo) | 0.8 | 0.9 | – |
| 7.15 | 6.72 | 7.11 | 1 | CN(C)CC1COC(c2ccccc2)(c2ccccc2)O1 (configuration not stated) | 3 | 0.4 | – |
| 6.87 | 6.71 | 6.71 | 1 | C[C@H]1OC(c2ccccc2)(c2ccccc2)O[C@@H]1CN(C)C (relative stereo) | 1 | 1 | – |
